Molecules are shown by their SMILES. In brackets after ≈: the same amount, converted by molar mass.

The conditions of the data set: buffer; pH 7.4; 200.0 µM.
Turning to `COc1c(Cl)cc(Cl)cc1C(=O)Nc1ccc(CN2CCOCC2)cc1`, the solubility (kinetic) is 2.6 µg/mL (≈ 6.58 µM). As for `Cc1nc(-c2ccc([N+](=O)[O-])cc2)nc2[nH]ccc(=O)c12`, the figure is 0.9 µg/mL (≈ 3.19 µM); as for `CN1CCC(N(C)C(=O)c2cc(S(=O)(=O)N(C)c3ccccc3)ccc2Cl)CC1.Cl`, above 70.9 µg/mL.

Compound `CC(C)[C@H](NC(=O)c1ccccc1Cl)C(=O)OCC(=O)Nc1ccc(S(=O)(=O)N2CCOCC2)cc1` returned a solubility (kinetic) of 40.3 µg/mL (≈ 74.9 µM). On to `CN(C)CCC#CC1(O)c2ccccc2-c2ccccc21`, for which the kinetic solubility amounted to 32.2 µg/mL (≈ 116 µM).

With `CCc1cc(SC#N)ccc1N`, the kinetic solubility came out at 20.7 µg/mL (≈ 116 µM). Against the preceding compound, the solubility kinetic is about 1.6-fold lower. `CCOC(=O)N(C)S(=O)(=O)c1ccccc1[N+](=O)[O-]`: the solubility (kinetic) came out at 42.9 µg/mL (≈ 149 µM). Compared with the last compound, the solubility kinetic is about 2.1-fold higher. Then `COc1cc(SC)ccc1C(=O)N1CCc2ccccc21`, with 4.5 µg/mL (≈ 15 µM). Then `Nc1c(Cl)ncnc1NCCc1ccc(O)cc1`, with 37.1 µg/mL (≈ 140 µM); and `COc1ccc(N2CCN(CC(=O)NCc3ccc(Cl)cc3)CC2)cc1`, with 2.2 µg/mL (≈ 5.88 µM). On to `CC1CCN(c2ccccc2NC(=O)c2ccc([N+](=O)[O-])o2)CC1`, for which the kinetic solubility came out at 0.5 µg/mL (≈ 1.52 µM).

Turning to `O=C1N(c2ccccc2)C(c2cccnc2)N2CCCN12` (stereo not drawn), the solubility (kinetic) was above 42 µg/mL. As for `CNC(=S)N(CCO)Cc1cc2cc3c(cc2[nH]c1=O)OCO3`, the figure is 19.6 µg/mL (≈ 58.4 µM); as for `COc1ccc(C(=O)COC(=O)c2sc(C)nc2C)cc1F`, 36.5 µg/mL (≈ 113 µM); as for `COc1ccc(N2CCN(C(=S)Nc3ccccc3)CC2)cc1`, 1.3 µg/mL (≈ 3.97 µM). Then `O=Cc1cn(CC(=O)Nc2ccccc2)c2ccccc12`, with 4.1 µg/mL (≈ 14.7 µM); and `Cc1c(CC(=O)Nc2ccc(Cl)cc2)sc2ccc(Cl)cc12`, with below 0.8 µg/mL; and `CC(=O)Nc1nc(C)c(C(C)(C)C)s1`, with above 31.8 µg/mL. Then `Cl.Nc1cccc(Nc2ncnc3ccccc23)c1`, with 31.9 µg/mL; and `Cc1cccc(C(=O)OCC(=O)NC(=O)Cc2ccccc2)c1O`, with 5.8 µg/mL (≈ 17.7 µM). In turn, `COc1cccc(NC(=O)N2CCCC2C(=O)NC2CCCC2)c1` (stereo not drawn) had a kinetic solubility of 45.9 µg/mL (≈ 138 µM). As for `Cc1ncc2c(n1)-c1cc(F)ccc1SC2`, the figure is 28.9 µg/mL (≈ 124 µM); as for `CCOC(=O)c1oc2nc3c(cc2c1N)CCCC3`, 10.4 µg/mL (≈ 40 µM); as for `Cc1cccc2cc3c(nc12)-c1ccccc1C3=O`, below 0.5 µg/mL. The compound `Cc1ccc(-c2onc3ccc(C4OCCO4)cc23)cc1` registered a solubility (kinetic) of 1 µg/mL (≈ 3.55 µM).

The compound `CCOC(=O)C1=CCN(Cc2ccccc2)CC1.Cl` showed a kinetic solubility of 37.8 µg/mL.

As for `O=C1C(=O)c2ccccc2C(O)=C1c1cccc([N+](=O)[O-])c1`, the kinetic solubility was above 44.3 µg/mL. In the case of `CC1(C)Cc2nc3oc4c(SCC(N)=O)ncnc4c3cc2CO1`, the kinetic solubility came to 17.8 µg/mL (≈ 51.7 µM).

In the case of `COc1ccc(CNC(=O)CSc2nc3cccnc3s2)cc1`, the solubility (kinetic) worked out at 36.3 µg/mL (≈ 105 µM).

In turn, `COc1cc(/C=C(\C#N)c2nc3ccccc3[nH]2)ccc1O` displayed a solubility (kinetic) of 4.9 µg/mL (≈ 16.8 µM).

Compound `COc1ccc(NC(=O)c2cc3ccccc3o2)cc1S(=O)(=O)N1CCCCC1` had a solubility (kinetic) of 9.2 µg/mL (≈ 22.2 µM). Then `COc1ccc(OC)c(NC(=O)NC2CCCc3ccccc32)c1` (stereo not drawn), with 0.7 µg/mL (≈ 2.14 µM); and `O=C(Nc1ccc2c(c1)OCCO2)c1ccc(Cl)c(Cl)c1`, with below 0.7 µg/mL; and `CCOc1ncc(S(=O)(=O)N2CCN(CC)CC2)cc1C(=O)O`, with above 51.5 µg/mL.

`CN1C2CCC1CC(OC(c1ccccc1)c1ccccc1N)C2` (stereo not drawn) displayed a kinetic solubility above 48.4 µg/mL. As for `O=C(COC(=O)CSc1ccc(Cl)cc1)Nc1ccc2[nH]c(=O)[nH]c2c1`, the figure is 13.5 µg/mL (≈ 34.5 µM). As for `CC(=O)Nc1ccc2c(c1)nc(C)n2Cc1ccccc1`, the figure is above 41.9 µg/mL.

`COC(=O)c1cccc(NC(=O)CC2C(=O)NCCN2C(=O)Nc2cc(C)cc(C)c2)c1` (stereo not drawn): the kinetic solubility came to 13.1 µg/mL (≈ 29.9 µM). For `CSc1ccc(CN(C)CC(=O)NCc2ccccc2)cc1`, the kinetic solubility was 41 µg/mL (≈ 130 µM). As for `Nc1nonc1C(=O)NCCNc1ncccc1[N+](=O)[O-]`, the figure is 30.2 µg/mL (≈ 103 µM); as for `CCC(C)NC(=O)c1ccc(CSCc2ccc(Cl)cc2)o1` (stereo not drawn), 22.6 µg/mL (≈ 66.9 µM). Compound `Cc1ccc(O)c(Nc2ncnc3ccc([N+](=O)[O-])cc23)c1.Cl` displayed a solubility (kinetic) of 9.6 µg/mL. Take `COCC(=O)Nc1c(C(=O)N2CCCC2)oc2ccccc12`: the kinetic solubility stood at 40.4 µg/mL (≈ 134 µM). `CC1CCC(N(CCCN)Cc2ccco2)CC1C` (stereo not drawn) gave a kinetic solubility of 31.6 µg/mL (≈ 120 µM). Then `O=C(Nc1ccccc1C(=O)NCCc1ccc(O)cc1)c1ccco1`, with 24.2 µg/mL (≈ 69.1 µM). In turn, `Cc1cnc(C(=O)OCC(=O)Nc2cccc3ccccc23)cn1` came in with a solubility (kinetic) above 48.2 µg/mL. As for `C=CCSc1ncc(CO)n1Cc1ccccc1`, the figure is 37.9 µg/mL (≈ 146 µM); as for `O=C(Nc1ccccc1Cl)c1ccc2nccnc2c1`, above 42.6 µg/mL. Take `CC1(C(=O)OCC(=O)NCc2ccc(Cl)cc2)CC1(Cl)Cl` (stereo not drawn): the solubility (kinetic) worked out at 52.5 µg/mL (≈ 150 µM). Then `Cc1cc(N2CCCCC2C)nc(-c2ccccc2O)n1` (stereo not drawn), with 0.5 µg/mL (≈ 1.76 µM); and `CC1CC(C)CN(C(=O)c2cccc(NC(=O)CC3SC(N4CCCCC4)=NC3=O)c2)C1` (stereo not drawn), with 67.1 µg/mL (≈ 147 µM). `O=C(CN1c2cccc3cccc(c23)S1(=O)=O)NCCc1ccc(F)cc1` returned a solubility (kinetic) of 1.9 µg/mL (≈ 4.94 µM). Compared with the last compound, the solubility kinetic is about 35-fold lower.

Take `COc1ccc(Nc2nc3c(C)cccn3c(=O)c2C=O)cc1`: the solubility (kinetic) is below 0.2 µg/mL. The compound `CC(C)Cn1cnc2c1c(=O)[nH]c(=O)n2Cc1ccccc1` came in with a kinetic solubility of 32.7 µg/mL (≈ 110 µM). Then `O=C(CNC(=O)c1ccco1)Nc1ccc2c(c1)OCCO2`, with above 45.3 µg/mL. Then `Cc1ccccc1NC(=O)c1ccccc1-c1ccccc1`, with 36.5 µg/mL (≈ 127 µM); and `CC[n+]1oc(-c2ccccc2)cc1C.F[B-](F)(F)F`, with 37.4 µg/mL. Compound `O=C(NC1CCCCC1)C1CC(=O)N(Cc2ccccc2)C1` (stereo not drawn) returned a kinetic solubility above 45.1 µg/mL. For `Cc1noc(C)c1COc1ccc(C(=O)NCc2cccs2)cc1`, the kinetic solubility turned out to be 16.5 µg/mL (≈ 48.2 µM). Then `Cc1ccc(NC(=O)COC(=O)c2ccco2)cc1S(=O)(=O)N1CCOCC1`, with above 61.3 µg/mL; and `Cc1ccc(C(=O)N/C(=C\c2cn(C)c3ccccc23)C(=O)OCCN(C)C)cc1`, with 58.9 µg/mL (≈ 145 µM); and `CC(C)(C)NC(=O)/C(=C/c1cccnc1)NC(=O)c1ccco1`, with above 47 µg/mL. As for `COc1ccc(C(=O)CC(=O)C(=O)Nc2ccccc2)cc1`, the figure is 34.6 µg/mL (≈ 116 µM); as for `O=C1C(Cl)=C(N2CCOCC2)C(=O)N1c1ccccc1F`, 38.7 µg/mL (≈ 125 µM); as for `NCC1(CC(=O)O)CCCCC1`, above 25.7 µg/mL. `O=C(O)CSc1ncnc2sc(-c3ccccc3)cc12` gave a solubility (kinetic) above 45.4 µg/mL. Take `CCCN(CC(=O)Nc1ccccc1C)C(=O)c1cnc(C)cn1`: the solubility (kinetic) was above 49 µg/mL. `Cc1cccc(NC(=O)c2ccccc2NC(=O)c2ccccc2)n1` came in with a kinetic solubility of 1.8 µg/mL (≈ 5.43 µM). In the case of `CCCOc1ccc(C(=O)Nc2cccnc2)cc1`, the solubility (kinetic) amounted to 36 µg/mL (≈ 140 µM).

`Cc1noc(C)c1S(=O)(=O)N(C)Cc1ccccc1`: the kinetic solubility amounted to 38.5 µg/mL (≈ 137 µM). As for `Cc1nc2ccc(NC(=O)c3cnc(Cl)c(Cl)c3)cc2s1`, the kinetic solubility is 0.3 µg/mL (≈ 0.887 µM). As for `CN(C)S(=O)(=O)c1cccc(C(=O)Nc2ccc(C(=O)Nc3cccc(S(N)(=O)=O)c3)cc2)c1`, the kinetic solubility was 9 µg/mL (≈ 17.9 µM). As for `N=C1C(c2nc3ccccc3[nH]2)=C(O)CN1C1CCCCC1`, the figure is 0.4 µg/mL (≈ 1.35 µM).

These data come from PubChem BioAssay AID1996.
